# Assay results published in PMC3463759 (Clinical cancer research : an official journal of the …, 2012).
# “And” between values parts separate entries of the source, which are not always exact repeats. Equal values may be shown once. Read-outs that look alike come from different tables or passages of the source.
# Assays:
# [1] = Phase I 3+3 dose escalation: DLT, MTD, recommended phase II dose
# [2] = system: solid tumors; settings: single agent dasatinib; cited from earlier work
# [3] = system: recurrent or persistent ovarian cancer; settings: single agent 100 mg daily; ref Personal communication, Dr. Russell J. Schilder; cited from earlier work
# [4] = cited from earlier work
# [5] = system: advanced or recurrent epithelial ovarian, peritoneal, or tubal cancer; assay: Response
# [6] = Pharmacokinetics of dasatinib in plasma; settings: for AUC: 100 mg, AUC(TAU), TAU = 24 h
# [7] = all patients (N=20), all cycles
# [8] = cohort 1 (dasatinib 100 mg), n patients
# [9] = cohort 2 (dasatinib 120 mg), n patients
# [10] = cohort 3 (dasatinib 150 mg), n patients
# [11] = dasatinib 100 mg qd + paclitaxel + carboplatin, N=6, all cycles, patients (%)
# [12] = dasatinib 120 mg qd + paclitaxel + carboplatin, N=3, all cycles, patients (%)
# [13] = paclitaxel and dasatinib, Cycle 2 Day 1, N=18
# [14] = with paclitaxel (Cycle 2 Day 1) vs dasatinib alone (Cycle 1 Day 15)
compound,measurement,setting,value
"Cc1nc(Nc2ncc(C(=O)Nc3c(C)cccc3Cl)s2)cc(N2CCN(CCO)CC2)n1 [dasatinib, N-(2-chloro-6-methyl-phenyl)-2-(6-(4-(2-hydroxyethyl)-piperazin-1-yl)-2-methylpyrimidin-4-ylamino)thiazole-5-carboxamide]",DLT observed,"[1]; dasatinib 120 mg daily, paclitaxel 175 mg/m2, carboplatin AUC 6",no DLTs
same,DLT observed,"[1]; dasatinib 150 mg daily, paclitaxel 175 mg/m2, carboplatin AUC 6, first cycle",no DLTs
same,grade 4 neutropenia at 2 weeks,[1]; first three patients of the dasatinib 150 mg daily cohort,all three patients
same,predefined MTD,"[1]; in combination with paclitaxel and carboplatin, doses up to 150 mg daily",not reached
same,best clinical response: PRs,[2],1–5%
same,best clinical response: stable disease,[2],5–23%
same,Grade 3 and 4 neutropenia and thrombocytopenia,[3],not observed
same,cases of grade 3 anemia,[3],1
same,median PFS,[3],2.1 months
same,responses,[3],no responses
same,incidence of effusions,[4]; 140 mg daily,9%
same,severe pericardial effusions,[4],1%
same,severe pleural effusions,[4],5%
same,grade 3 to 4 hematologic toxicity,[4]; patients with solid tumors,3–6%
same,dose modifications secondary to hematologic toxicity,46/95 dose modifications,48%
same,patients reporting fatigue (any grade),all patients,Ninety
same,fatigue grade 3,[7],10%
same,thrombocytopenia grade 3–4,[7],35%
same,patients requiring dose modifications,cohort 1 (dasatinib 100 mg),100%
same,urinary tract infection,cohort 1 (dasatinib 100 mg),1
same,grade 1 hyponatremia,"cohort 1 (dasatinib 100 mg), n",1
same,grade 1 sinus pain,"cohort 1 (dasatinib 100 mg), n","9 Pain toxicity also included the following: (1) grade 2 neuralgia (n=1), grade 1 sinus pain (n=1), and grade 1 throat pain (n=1) in cohort 1; and (2) grade 1 back pain (n=1) and grade 1 extremity pain (n=1) in cohort 2."
same,grade 1 throat pain,"cohort 1 (dasatinib 100 mg), n","9 Pain toxicity also included the following: (1) grade 2 neuralgia (n=1), grade 1 sinus pain (n=1), and grade 1 throat pain (n=1) in cohort 1; and (2) grade 1 back pain (n=1) and grade 1 extremity pain (n=1) in cohort 2."
same,grade 2 neuralgia,"cohort 1 (dasatinib 100 mg), n","9 Pain toxicity also included the following: (1) grade 2 neuralgia (n=1), grade 1 sinus pain (n=1), and grade 1 throat pain (n=1) in cohort 1; and (2) grade 1 back pain (n=1) and grade 1 extremity pain (n=1) in cohort 2."
same,"pulmonary toxicity, grade 1 other unspecified etiology","cohort 1 (dasatinib 100 mg), n",10 Pulmonary toxicity also included the following: (1) grade 1 other unspecified etiology (n=1) in cohort 1; and (2) grade 2 hypoxia (n=1 in cohort 2.
same,"gastrointestinal toxicity, other unspecified etiologies, grade 1",[8],5 Gastrointestinal toxicity included other unspecified etiologies: (1) grade 1 (n=1) and grade 2 (n=1) in cohort 1; (2) grade 1 (n=1) in cohort 2; and (3) grade 1 (n=1) in cohort 3.
same,"gastrointestinal toxicity, other unspecified etiologies, grade 2",[8],5 Gastrointestinal toxicity included other unspecified etiologies: (1) grade 1 (n=1) and grade 2 (n=1) in cohort 1; (2) grade 1 (n=1) in cohort 2; and (3) grade 1 (n=1) in cohort 3.
same,grade 1 dehydration,[8],"4 Gastrointestinal toxicity also included the following: (1) grade 1 dehydration (n=1) in cohort 1; (2) grade 1 distension (n=1), grade 1 xerostomia (n=1), grade 1 gastritis (n=1) in cohort 2; and (3) grade 1 xerostomia (n=1) in cohort 3."
same,grade 1 joint-function toxicity,[8],1 Additional toxicities in cohort 1 included musculoskeletal toxicity characterized by grade 1 joint-function toxicity (n=1) and grade 1 muscular complaints (n=1). The grade 3 myalgia is reported under pain.
same,grade 1 muscular complaints,[8],1 Additional toxicities in cohort 1 included musculoskeletal toxicity characterized by grade 1 joint-function toxicity (n=1) and grade 1 muscular complaints (n=1). The grade 3 myalgia is reported under pain.
same,cases of grade 1 somnolence/depressed level of consciousness,cohort 2 (dasatinib 120 mg),8 Neurologic toxicity included one case of grade 1 somnolence/depressed level of consciousness in cohort 2.
same,patients requiring dose modifications,cohort 2 (dasatinib 120 mg),67%
same,grade 1 back pain,"cohort 2 (dasatinib 120 mg), n","9 Pain toxicity also included the following: (1) grade 2 neuralgia (n=1), grade 1 sinus pain (n=1), and grade 1 throat pain (n=1) in cohort 1; and (2) grade 1 back pain (n=1) and grade 1 extremity pain (n=1) in cohort 2."
same,grade 1 extremity pain,"cohort 2 (dasatinib 120 mg), n","9 Pain toxicity also included the following: (1) grade 2 neuralgia (n=1), grade 1 sinus pain (n=1), and grade 1 throat pain (n=1) in cohort 1; and (2) grade 1 back pain (n=1) and grade 1 extremity pain (n=1) in cohort 2."
same,grade 1 hypokalemia,"cohort 2 (dasatinib 120 mg), n",1
same,grade 1 hypomagnesemia,"cohort 2 (dasatinib 120 mg), n",1
same,grade 2 hypoxia,"cohort 2 (dasatinib 120 mg), n",10 Pulmonary toxicity also included the following: (1) grade 1 other unspecified etiology (n=1) in cohort 1; and (2) grade 2 hypoxia (n=1 in cohort 2.
same,"gastrointestinal toxicity, other unspecified etiologies, grade 1",[9],5 Gastrointestinal toxicity included other unspecified etiologies: (1) grade 1 (n=1) and grade 2 (n=1) in cohort 1; (2) grade 1 (n=1) in cohort 2; and (3) grade 1 (n=1) in cohort 3.
same,grade 1 distension,[9],"4 Gastrointestinal toxicity also included the following: (1) grade 1 dehydration (n=1) in cohort 1; (2) grade 1 distension (n=1), grade 1 xerostomia (n=1), grade 1 gastritis (n=1) in cohort 2; and (3) grade 1 xerostomia (n=1) in cohort 3."
same,grade 1 gastritis,[9],"4 Gastrointestinal toxicity also included the following: (1) grade 1 dehydration (n=1) in cohort 1; (2) grade 1 distension (n=1), grade 1 xerostomia (n=1), grade 1 gastritis (n=1) in cohort 2; and (3) grade 1 xerostomia (n=1) in cohort 3."
same,grade 1 xerostomia,[9],"4 Gastrointestinal toxicity also included the following: (1) grade 1 dehydration (n=1) in cohort 1; (2) grade 1 distension (n=1), grade 1 xerostomia (n=1), grade 1 gastritis (n=1) in cohort 2; and (3) grade 1 xerostomia (n=1) in cohort 3."
same,patients requiring dose modifications,cohort 3 (dasatinib 150 mg),91%
same,grade 1 elevated alkaline phosphatase,"cohort 3 (dasatinib 150 mg), n","7 Metabolic toxicities also included the following: grade 1 elevated transaminases (n=1), grade 1 elevated alkaline phosphatase (n=1), and proteinuria (grade 1 (n=1), grade 2 (n=1)) in cohort 3."
same,grade 1 elevated transaminases,"cohort 3 (dasatinib 150 mg), n","7 Metabolic toxicities also included the following: grade 1 elevated transaminases (n=1), grade 1 elevated alkaline phosphatase (n=1), and proteinuria (grade 1 (n=1), grade 2 (n=1)) in cohort 3."
same,grade 1 hyponatremia,"cohort 3 (dasatinib 150 mg), n",2
same,grade 2 hypocalcemia,"cohort 3 (dasatinib 150 mg), n",1
same,grade 3 hypercalcemia,"cohort 3 (dasatinib 150 mg), n",1
same,hypokalemia grade 1,"cohort 3 (dasatinib 150 mg), n",3
same,hypokalemia grade 4,"cohort 3 (dasatinib 150 mg), n",1
same,hypomagnesemia grade 1,"cohort 3 (dasatinib 150 mg), n",2
same,hypomagnesemia grade 2,"cohort 3 (dasatinib 150 mg), n",1
same,hypophosphatemia grade 2,"cohort 3 (dasatinib 150 mg), n",2
same,hypophosphatemia grade 3,"cohort 3 (dasatinib 150 mg), n",1
same,proteinuria grade 1,"cohort 3 (dasatinib 150 mg), n","7 Metabolic toxicities also included the following: grade 1 elevated transaminases (n=1), grade 1 elevated alkaline phosphatase (n=1), and proteinuria (grade 1 (n=1), grade 2 (n=1)) in cohort 3."
same,proteinuria grade 2,"cohort 3 (dasatinib 150 mg), n","7 Metabolic toxicities also included the following: grade 1 elevated transaminases (n=1), grade 1 elevated alkaline phosphatase (n=1), and proteinuria (grade 1 (n=1), grade 2 (n=1)) in cohort 3."
same,"gastrointestinal toxicity, other unspecified etiologies, grade 1",[10],5 Gastrointestinal toxicity included other unspecified etiologies: (1) grade 1 (n=1) and grade 2 (n=1) in cohort 1; (2) grade 1 (n=1) in cohort 2; and (3) grade 1 (n=1) in cohort 3.
same,grade 1 epitaxis,[10],1
same,grade 1 facial and neck edema,[10],1
same,grade 1 weight loss,[10],2
same,grade 1 xerostomia,[10],"4 Gastrointestinal toxicity also included the following: (1) grade 1 dehydration (n=1) in cohort 1; (2) grade 1 distension (n=1), grade 1 xerostomia (n=1), grade 1 gastritis (n=1) in cohort 2; and (3) grade 1 xerostomia (n=1) in cohort 3."
same,grade 3 hypotension,[10],1
same,"Allergy, Grade 3",[11],1 (17)
same,"Dermatogic: Alopecia, Grade 2",[11],6 (100)
same,"Dermatogic: Pruritis, Grade 2",[11],1 (17)
same,"Gastrointestinal: Anorexia, Grade 1",[11],2 (33)
same,"Gastrointestinal: Mucositis/Stomatitis, Grade 1",[11],2 (33)
same,"Neurologic: Ocular, Grade 1",[11],1 (17)
same,"Pain: Joint, Grade 2",[11],2 (33)
same,"Pain: Muscle, Grade 2",[11],1 (17)
same,"Thrombocytopenia, Grade 1",[11],2 (33)
same,"Thrombocytopenia, Grade 2",[11],1 (17)
same,"Thrombocytopenia, Grade 3",[11],1 (17)
same,"Thrombocytopenia, Grade 4",[11],1 (17)
same,fatigue grade 3,[11],2 (33)
same,"Allergy, Grade 3",[12],1 (33)
same,"Dermatogic: Alopecia, Grade 1",[12],1 (33)
same,"Dermatogic: Alopecia, Grade 2",[12],2 (67)
same,"Gastrointestinal: Anorexia, Grade 1",[12],3 (100)
same,"Gastrointestinal: Mucositis/Stomatitis, Grade 1",[12],1 (33)
same,"Neurologic: Ocular, Grade 1",[12],1 (33)
same,"Pain: Joint, Grade 2",[12],1 (33)
same,"Thrombocytopenia, Grade 3",[12],1 (33)
same,"clinically-significant pleural effusions, ascites, or cardiac issues",in vivo,not observed
same,other infections,in vivo,Two
same,patient deaths during the treatment phase,in vivo,no patient deaths
same,reports of infection associated with febrile neutropenia,in vivo,one
same,complete responses (CR),[5]; 3/20,15%
same,partial responses (PR),[5]; 5/20,25%
same,PFS6-month actuarial estimate,[5]; 95% confidence interval 69–100%,86%
same,median OS,[5]; in vivo,16.2 months
same,median PFS,[5]; in vivo,7.8 months
same,"T-HALF, Mean (SD)","[6]; dasatinib alone, Cycle 1 Day 15, N=14",6.17 h and 6.17 (2.32) h
same,Tmax,"[6]; human, plasma, oral",2 h
same,AUC,"[6]; human, plasma, oral, Geo Mean (%CV), dasatinib alone, Cycle 1 Day 15, N=14, dose-normalized to 100 mg",478 ng·h/mL
same,AUC,"[6]; human, plasma, oral, Geo Mean (%CV), paclitaxel and dasatinib, Cycle 2 Day 1, N=18, dose-normalized to 100 mg",415 ng·h/mL
same,Cmax,"[6]; human, plasma, oral, Cmax, Geo Mean (%CV), paclitaxel and dasatinib, Cycle 2 Day 1, N=18, dose-normalized to 100 mg",78 ng/mL
same,inter-individual variability (%CV) for exposure,[6]; in vivo,40–90%
same,"T-HALF, Mean (SD)",[6]; [13],5.27 h and 5.27 (1.26) h
same,"Tmax, Median (min, max)",[6]; [13],"2.00 (0.50, 6.00) h"
same,reduction of geometric mean AUC(0-T),[6]; [14],11%
same,reduction of geometric mean AUC(TAU),[6]; [14],13%
